Test results from PubChem BioAssay AID248 (DTP/NCI, 2004).
Several values for one entry are separate records, joined by “and”; a condition that tells them apart may be missing. Equal values may be shown once. Inconclusive results and toxic doses are left out. No stated cut-off is given here; in the data, active means T/C of 150% or more; inactive means T/C below 125%.

Test system: L1210 leukemia ip in BDF1 mice, survival T/C
Assay: NCI In Vivo Anticancer Drug Screen. Data for tumor model L1210 Leukemia (intraperitoneal) in B6D2F1 (BDF1) mice
Conditions: endpoint: mean survival time, higher = longer survival
In short: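 Value reflects the ratio of survival in compound-treated mice to survival in vehicle-treated controls, with both groups carrying the same transplanted tumor.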

[1] = dose: 100.0 mg/kg/injection, schedule: Q01DX001 (ip), vehicle: carboxymethylcellulose (CMC)
[2] = dose: 200.0 mg/kg/injection, schedule: Q01DX001 (ip), vehicle: carboxymethylcellulose (CMC)
[3] = dose: 400.0 mg/kg/injection, schedule: Q01DX001 (ip), vehicle: carboxymethylcellulose (CMC)
[4] = dose: 100.0 mg/kg/injection, schedule: Q01DX001 (ip), vehicle: saline with Tween-80
[5] = dose: 200.0 mg/kg/injection, schedule: Q01DX001 (ip), vehicle: saline with Tween-80
[6] = dose: 400.0 mg/kg/injection, schedule: Q01DX001 (ip), vehicle: saline with Tween-80
[7] = dose: 100.0 mg/kg/injection, schedule: Q01DX009 (ip), vehicle: Klucel (hydroxypropylcellulose) (HPC)
[8] = dose: 200.0 mg/kg/injection, schedule: Q01DX009 (ip), vehicle: Klucel (hydroxypropylcellulose) (HPC)
[9] = dose: 400.0 mg/kg/injection, schedule: Q01DX009 (ip), vehicle: Klucel (hydroxypropylcellulose) (HPC)
[10] = dose: 100.0 mg/kg/injection, schedule: Q01DX001 (ip), vehicle: saline
[11] = dose: 200.0 mg/kg/injection, schedule: Q01DX001 (ip), vehicle: saline
[12] = dose: 400.0 mg/kg/injection, schedule: Q01DX001 (ip), vehicle: saline
[13] = dose: 25.0 mg/kg/injection, schedule: Q01DX009 (ip), vehicle: Klucel (hydroxypropylcellulose) (HPC)
[14] = dose: 50.0 mg/kg/injection, schedule: Q01DX009 (ip), vehicle: Klucel (hydroxypropylcellulose) (HPC)
[15] = dose: 100.0 mg/kg/injection, schedule: Q04DX003 (ip), vehicle: saline
[16] = dose: 200.0 mg/kg/injection, schedule: Q04DX003 (ip), vehicle: saline
[17] = dose: 400.0 mg/kg/injection, schedule: Q04DX003 (ip), vehicle: saline
[18] = dose: 100.0 mg/kg/injection, schedule: Q01DX009 (ip), vehicle: saline
[19] = dose: 200.0 mg/kg/injection, schedule: Q01DX009 (ip), vehicle: saline
[20] = dose: 50.0 mg/kg/injection, schedule: Q01DX009 (ip), vehicle: saline
[21] = dose: 75.0 mg/kg/injection, schedule: Q01DX001 (ip), vehicle: saline
[22] = dose: 150.0 mg/kg/injection, schedule: Q01DX001 (ip), vehicle: saline

Measured: T/C

Cc1cc2c(cc1C)NC(=O)CC(c1ccccc1)=N2
inactive: [1] 98 % of control | [2] 93 % of control | [3] 98 % of control

CSCC#N
inactive: [4] 93 % of control | [5] 96 % of control | [6] 96 % of control

CC(C)(C)c1cc(C[N+](C)(C)C)cc(C(C)(C)C)n1
inactive: dose: 50.0 mg/kg/injection, schedule: Q04DX002 (ip), vehicle: saline with Tween-80 92 % of control | dose: 100.0 mg/kg/injection, schedule: Q04DX002 (ip), vehicle: saline with Tween-80 99 % of control

CC(=O)CC1(O)C(=O)Nc2ccccc21 (stereo unspecified)
inactive: [7] 101 % of control | [8] 95 % of control | [9] 98 % of control

Cc1ccc(S(=O)(=O)OC2COC3C(OS(=O)(=O)c4ccc(C)cc4)COC23)cc1 (stereo unspecified)
inactive: [10] 93 % of control | dose: 100.0 mg/kg/injection, schedule: Q04DX003 (ip), vehicle: DMSO 103 % of control | [11] 96 % of control | dose: 200.0 mg/kg/injection, schedule: Q04DX003 (ip), vehicle: DMSO 97 % of control | [12] 93 % of control | dose: 400.0 mg/kg/injection, schedule: Q04DX003 (ip), vehicle: DMSO 111 % of control

COC12C3C=CC4C(C=C3)C4C1C2(Br)Br (stereo unspecified)
inactive: dose: 50.0 mg/kg/injection, schedule: Q01DX001 (ip), vehicle: Klucel (hydroxypropylcellulose) (HPC) 105 % of control | dose: 100.0 mg/kg/injection, schedule: Q01DX001 (ip), vehicle: Klucel (hydroxypropylcellulose) (HPC) 96 % of control | dose: 200.0 mg/kg/injection, schedule: Q01DX001 (ip), vehicle: Klucel (hydroxypropylcellulose) (HPC) 105 % of control

Clc1cnc(C(Cl)(Cl)Cl)c(Cl)n1 (tested in a mixture with another compound)
inactive: dose: 12.5 mg/kg/injection, schedule: Q01DX009 (ip), vehicle: Klucel (hydroxypropylcellulose) (HPC) 94 % of control | [13] 97 % of control | [14] 100 % of control

O=C1c2ccccc2-c2cc(F)cc(F)c21
inactive: dose: 50.0 mg/kg/injection, schedule: Q01DX001 (ip), vehicle: carboxymethylcellulose (CMC) 104 % of control | [1] 102 % of control | [2] 102 % of control | [3] 102 % of control

COc1ccccc1OC
inactive: [15] 97 % of control | [16] 103 % of control | [17] 86 % of control

C=CCC(CC)C(=O)O (stereo unspecified)
inactive: [18] 104 % of control | [15] 100 % of control | [19] 96 % of control | [16] 97 % of control | [17] 97 % of control

CNCC(C)CN1CCCCCc2ccccc21 (stereo unspecified)
inactive: dose: 3.12 mg/kg/injection, schedule: Q01DX009 (ip), vehicle: saline 100 % of control | dose: 6.25 mg/kg/injection, schedule: Q01DX009 (ip), vehicle: saline 93 % of control | dose: 12.5 mg/kg/injection, schedule: Q01DX009 (ip), vehicle: saline 100 % of control | dose: 25.0 mg/kg/injection, schedule: Q01DX009 (ip), vehicle: saline 97 % of control | [20] 104 % of control

CCCCCCC(C)CC(CCCCCC)NCCOC(=O)c1ccc([N+](=O)[O-])cc1 (stereo unspecified)
inactive: [21] 105 % of control | [22] 100 % of control | dose: 300.0 mg/kg/injection, schedule: Q01DX001 (ip), vehicle: saline 121 % of control

CCSC(C(Nc1ccc([N+](=O)[O-])cc1[N+](=O)[O-])C(O)C(O)C(O)CO)n1cc(C)c(=O)[nH]c1=O (stereo unspecified)
inactive: dose: 50.0 mg/kg/injection, schedule: Q01DX001 (ip), vehicle: saline 97 % of control | [10] 100 % of control | [11] 100 % of control | [12] 100 % of control

C[N+](C)(C)Cc1ccccc1/C(=N\O)c1ccccc1
inactive: dose: 10.0 mg/kg/injection, schedule: Q01DX001 (ip), vehicle: carboxymethylcellulose (CMC) 96 % of control | dose: 20.0 mg/kg/injection, schedule: Q01DX001 (ip), vehicle: carboxymethylcellulose (CMC) 101 % of control

O=C(/C=C/C(=O)c1ccc(-c2ccccc2)cc1)c1ccc(-c2ccccc2)cc1
inactive: [14] 92 % of control | [7] 87 % of control | [8] 90 % of control | [9] 87 % of control

O=C(Nc1ccc(Br)cc1)C(Br)C(Br)c1ccccc1 (stereo unspecified)
inactive: dose: 100.0 mg/kg/injection, schedule: Q04DX002 (ip), vehicle: Klucel (hydroxypropylcellulose) (HPC) 98 % of control | dose: 200.0 mg/kg/injection, schedule: Q04DX002 (ip), vehicle: Klucel (hydroxypropylcellulose) (HPC) 88 % of control | dose: 400.0 mg/kg/injection, schedule: Q04DX002 (ip), vehicle: Klucel (hydroxypropylcellulose) (HPC) 98 % of control

O=[N+]([O-])c1ccc(N/N=C/C(c2ccccc2)c2ccsc2)c([N+](=O)[O-])c1 (stereo unspecified)
inactive: dose: 50.0 mg/kg/injection, schedule: Q04DX003 (ip), vehicle: saline 104 % of control | [4] 97 % of control | [15] 106 % of control | [5] 96 % of control | [16] 104 % of control

c1ccc(-c2cccc[c]2[Hg][c]2ccccc2-c2ccccc2)cc1
inactive: [1] 96 % of control | [2] 93 % of control | [3] 93 % of control

CCCCCCCCCCCC(=O)N/N=C(\C)c1cccc2ccccc12
inactive: [13] 92 % of control | [14] 96 % of control | [7] 88 % of control and 92 % of control

[Cl][Co][Cl].[NH-]CCC[NH-].[NH-]CCC[NH-]
inactive: [15] 109 % of control

COC(=O)c1n[nH]c(C)c1N=NN(C)C
inactive: [21] 119 % of control | [22] 123 % of control

NC(CSS(=O)(=O)O)=NCCCc1c[nH]c2ccccc12
inactive: dose: 12.5 mg/kg/injection, schedule: Q04DX002 (ip), vehicle: Klucel (hydroxypropylcellulose) (HPC) 100 % of control | dose: 25.0 mg/kg/injection, schedule: Q04DX002 (ip), vehicle: Klucel (hydroxypropylcellulose) (HPC) 107 % of control | dose: 50.0 mg/kg/injection, schedule: Q04DX002 (ip), vehicle: Klucel (hydroxypropylcellulose) (HPC) 107 % of control

O=S(=O)(O)c1cc(Cl)cc(Cl)c1O
inactive: [18] 96 % of control | [15] 113 % of control | [19] 100 % of control | [16] 105 % of control | dose: 400.0 mg/kg/injection, schedule: Q01DX009 (ip), vehicle: saline 105 % of control | [17] 107 % of control

COc1ccc(C)cc1NC(=O)OCCOc1ccc(Br)cc1
inactive: dose: 50.0 mg/kg/injection, schedule: Q01DX009 (ip), vehicle: saline with Tween-80 90 % of control | dose: 100.0 mg/kg/injection, schedule: Q01DX009 (ip), vehicle: saline with Tween-80 97 % of control | dose: 200.0 mg/kg/injection, schedule: Q01DX009 (ip), vehicle: saline with Tween-80 87 % of control

O=S(=O)(NOCCCCONS(=O)(=O)c1ccccc1)c1ccccc1
inactive: [4] 88 % of control | [5] 95 % of control | [6] 97 % of control

CCC1(C)OC(C)C(C)O1 (stereo unspecified)
inactive: [20] 100 % of control | [18] 107 % of control | [19] 104 % of control

CC1(C)OC(C)(C)C1(O)C(=O)O
inactive: [10] 97 % of control | [11] 101 % of control | [12] 105 % of control
